“Also recorded” adds a separate entry of the source. Like-named read-outs stand apart in the source and are kept apart here.
Experiments:
[1] = molecular target: T1, VIM-2 (Escherichia coli, UniProt Q5U7L7); test: VIM-2 CCF2 kinetic assay; assay type: biochemical; settings: VIM-2, CCF2 format; SD of 3 replicates
[2] = molecular target: T1, VIM-2; assay type: biochemical
[3] = molecular target: T1, VIM-2; assay type: biochemical; settings: for effect of absence of zinc in the assay buffer on potency: with vs without 50 μM ZnSO4
[4] = molecular target: IMP-1 (Serratia marcescens, UniProt P52699); test: biochemical; assay type: biochemical; settings: for inhibition at 56 µM: read-out: Max Inhibition @ Tested Concentration, IMP-1 Nitrocefin
[5] = molecular target: TEM-1 (Escherichia coli, UniProt P62593); test: TEM-1 nitrocefin assay; assay type: biochemical; settings: for inhibition at 25 µM: read-out: Max Inhibition @ Tested Concentration, TEM-1 Nitrocefin; for inhibitory activity against TEM-1 (in words): highest concentration tested 25 μM
[6] = molecular target: AmpC (Enterobacter cloacae, UniProt P05364); test: AmpC nitrocefin assay; assay type: biochemical, E.cloacae; settings: for inhibition at 25 µM: read-out: Max Inhibition @ Tested Concentration, AmpC Nitrocefin; for inhibitory activity against AmpC (in words): highest concentration tested 25 μM
[7] = test system: resistant E. coli (BL21/VIM-2); test: Imipenem MIC potentiation by a single dose of inhibitor; assay type: cell-based; settings: for Imipenem MIC @ 50 μM of compound: BL21+VIM-2; for potentiation of imipenem efficacy (in words): resistant E. coli (BL21/VIM-2)
[8] = molecular target: T1, VIM-2; test: VIM-2 FRET; assay type: biochemical; settings: @ 36 μM
[9] = test system: non-resistant (BL21) E. coli; test: MIC assay, non-resistant strain; assay type: cell-based
[10] = test system: resistant (BL21/VIM-2) E. coli; assay type: cell-based
[11] = test system: BL21/VIM2 E. coli; assay type: cell-based; settings: checkerboard microdilution
[12] = molecular target: T1, VIM-2; test: Rapid dilution experiment

Sequence of IMP-1 (P52699 19-246 limits assumed): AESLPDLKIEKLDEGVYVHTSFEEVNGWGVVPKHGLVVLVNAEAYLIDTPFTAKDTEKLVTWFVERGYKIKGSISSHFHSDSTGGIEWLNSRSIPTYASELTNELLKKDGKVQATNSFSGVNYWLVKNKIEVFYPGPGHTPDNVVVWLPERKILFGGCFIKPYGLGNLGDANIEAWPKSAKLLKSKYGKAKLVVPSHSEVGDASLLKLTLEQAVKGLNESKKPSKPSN
Sequence of TEM-1 (P62593 24-286 limits assumed): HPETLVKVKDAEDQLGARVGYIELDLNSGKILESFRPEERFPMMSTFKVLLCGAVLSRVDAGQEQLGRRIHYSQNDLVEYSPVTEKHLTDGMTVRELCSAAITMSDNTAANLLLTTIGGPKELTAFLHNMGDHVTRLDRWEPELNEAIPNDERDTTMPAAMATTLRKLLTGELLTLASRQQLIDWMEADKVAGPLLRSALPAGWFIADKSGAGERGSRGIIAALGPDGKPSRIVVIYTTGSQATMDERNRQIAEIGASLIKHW
Sequence of AmpC (P05364 21-381): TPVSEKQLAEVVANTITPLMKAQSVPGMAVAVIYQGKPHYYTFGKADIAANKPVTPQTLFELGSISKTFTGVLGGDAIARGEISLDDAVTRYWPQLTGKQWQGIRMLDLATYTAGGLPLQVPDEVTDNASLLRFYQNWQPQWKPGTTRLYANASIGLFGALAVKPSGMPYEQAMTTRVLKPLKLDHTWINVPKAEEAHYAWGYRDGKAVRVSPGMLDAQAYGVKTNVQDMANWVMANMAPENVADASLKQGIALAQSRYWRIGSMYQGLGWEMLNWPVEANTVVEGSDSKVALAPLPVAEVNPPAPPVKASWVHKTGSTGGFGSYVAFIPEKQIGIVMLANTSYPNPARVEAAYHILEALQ

SMILES | mechanism of inhibition [2] | effect of absence of zinc in the assay buffer on potency [3] | IC50 [4] [µM] | activity in the IMP-1 nitrocefin assay (in words) [4] | inhibition at 56 µM [4] [%] | IC50 [5] [µM] | inhibition at 25 µM [5] [%] | IC50 [6] [µM] | inhibition at 25 µM [6] [%] | Imipenem MIC @ 50 μM of compound [7] [µg/mL] | inhibitory activity against TEM-1 (in words) [5] | inhibitory activity against AmpC (in words) [6] | potentiation of imipenem efficacy (in words) [7] | also measured
O=C(CNC(=O)c1cc2cc(Cl)c(O)cc2oc1=O)N[C@@H]1C(=O)N2C(C(=O)O)=C(CSc3ccc4c(c3)C(=O)OC43c4ccc(O)cc4Oc4cc(O)ccc43)CS[C@H]12 [CCF2] | – | – | – | – | – | – | – | – | – | – | – | – | – | Km [1]: 21 ± 7 µM
C#CCCOCc1nn[nH]c1CNS(=O)(=O)c1ccc(I)cc1 [Compound 1, 4-Iodo-N-((4-((but-3-ynyloxy)methyl)-1H-1,2,3-triazol-5-yl)methyl)benzenesulfonamide] | competitive inhibitors | not significantly affected by the absence of zinc; also recorded: independent of the concentration of zinc | > 56 | inactive | 0 | > 25 | 0 | > 25 | 0 | 1.9 | – | – | – | –
COCc1nn[nH]c1CNS(=O)(=O)c1ccc(I)cc1 [Compound 2, 4-Iodo-N-((4-(methoxymethyl)-1H-1,2,3-triazol-5-yl)methyl)benzenesulfonamide] | competitive inhibitors | not significantly affected by the absence of zinc; also recorded: independent of the concentration of zinc | > 56 | inactive | 0 | > 25 | 0 | > 25 | 0 | 1.9 | – | – | – | –
O=C1c2c(O)ccc(O)c2C(=O)c2c(NCCNCCO)ccc(NCCNCCO)c21 [Mitoxantrone, 1,4-Dihydroxy-5,8-bis([2-([2-hydroxyethyl]amino)ethyl]amino)-9,10-anthracenedione] | – | not significantly affected by the absence of zinc | > 56 | did not exhibit any inhibitory activity | 0 | > 25 | 0 | > 25 | 0 | 0.2 | did not exhibit any inhibitory activity | did not exhibit any inhibitory activity | completely reverse the effects of VIM-2 on imipenem potency; also recorded: potentiate imipenem efficacy | activity in the IMP-1 nitrocefin assay (in words) ([4]; listed as mitoxantrone): inactive at the range of concentrations tested
O=C(O)c1cc[c]([Hg][Cl])cc1 [pCMB, 4-chloromercuribenzoic acid] | slowly reversible or irreversible inhibitor; also recorded: irreversible / slowly reversible | not significantly affected by the absence of zinc | – | modest potency; also recorded: demonstrated potency | – | – | – | – | – | 0.2 | no inhibitory activity | no inhibitory activity | completely reverse the effects of VIM-2 on imipenem potency; also recorded: potentiate imipenem efficacy | Max Inhibition @ Tested Concentration, VIM-2 (Nitrocefin) ([3]; @ 15 μM): NA ^(e) (80% @ 15 μM); Max Inhibition @ Tested Concentration, VIM-2 (CCF2) [8]: NA (83% @ 36 μM); Max Inhibition @ Tested Concentration, IMP-1 Nitrocefin ([4]; @ 140 μM, 15 minutes of preincubation): NA (82% @ 140 μM); Max Inhibition @ Tested Concentration, TEM-1 Nitrocefin ([5]; @ 25 μM): 0%; IC50 ([5]; read-out: IC50 TEM-1 Nitrocefin): > 25 µM; Max Inhibition @ Tested Concentration, AmpC Nitrocefin ([6]; @ 25 μM): 0%; IC50 ([6]; read-out: IC50 AmpC Nitrocefin): > 25 µM; Compound MIC [9]: 17.9 µg/mL; Compound MIC [10]: 17.9 µg/mL; MIC alone [11]: 17.9 µg/mL; inhibition of VIM-2 ([12]; 24 μM, incubated 30 minutes at room temperature): 90%; recovery of VIM-2 activity after dilution ([12]; after 15 minutes, 1:100 dilution from 24 μM): 16.5%

— PMC2759276 (Bioorganic & medicinal chemistry, 2009)
